Measurements as given in ChEMBL document CHEMBL1121544, “Synthesis, absorption, and toxicity of N1,N8-bis(2,3-dihydroxybenzoyl)spermidine, a potent iron chelator” (J Med Chem, 1980).

Assays:
Type in all cases: functional, organism-based
[1] = organism: Rattus norvegicus; assay: % chelator inside the intestinal sac in animal 1 at lower (distal) segment of the intestine starting from the proximal end
[2] = organism: Rattus norvegicus; assay: % chelator inside the intestinal sac in animal 3 at middle segment of the intestine starting from the proximal end.
[3] = organism: Rattus norvegicus; assay: % chelator inside the intestinal sac in animal 3 at upper segment of the intestine starting from the proximal end.
[4] = organism: Rattus norvegicus; assay: % chelator inside the intestinal sac in animal 2 at middle segment of the intestine starting from the proximal end.
[5] = organism: Rattus norvegicus; assay: % chelator inside the intestinal sac in animal 3 at lower (distal) segment of the intestine starting from the proximal end
[6] = organism: Rattus norvegicus; assay: % chelator inside the intestinal sac in animal 2 at upper segment of the intestine starting from the proximal end.
[7] = organism: Rattus norvegicus; assay: % chelator inside the intestinal sac in animal 1 at middle segment of the intestine starting from the proximal end.
[8] = organism: Rattus norvegicus; assay: % chelator inside the intestinal sac in animal 1 at upper segment of the intestine starting from the proximal end.
[9] = organism: Rattus norvegicus; assay: % chelator inside the intestinal sac in animal 2 at lower (distal) segment of the intestine starting from the proximal end

`O=C(NCCCCNCCCNC(=O)c1cccc(O)c1O)c1cccc(O)c1O` gave a Chelator [1] of 44%, a Chelator [2] of 44% and a Chelator [3] of 32%. For the same compound, the Chelator [4] was 35%, the Chelator [5] was 50% and the Chelator [6] was 33%. For the same compound, the Chelator [7] was 40%, the Chelator [8] was 42% and the Chelator [9] was 32%.
